According to US20020115642A1, “Beta-lactam antibiotics” (priority 2000, published 2002):
Values after ≈ are worked out from the molar mass of the structure shown. Read-outs that look alike come from different tables or passages of the source.

Key:
[1] = tested on: K. pneumoniae; test: Susceptibility testing (MIC, modified NCCLS method); format: cell-based, Klebsiella pneumoniae; details: K. pneumoniae ATCC 700721
Protocol: (§1) The NCCLS (National Committee for Clinical Laboratory Standards) method to determine MIC's of antimicrobial compounds was modified for high-throughput screening. All stocks of tested compounds were prepared in either water or in dimethylsulfoxide (DMSO), depending on the solubility. […] Briefly 20 2-fold serial dilutions of testing compounds from the highest concentration were made in a 384-well microtiter plate. Each well was inoculated with testing bacteria in broth to a final concentration of approximately 1-1.5×10^6 cells/ml. Bacterial growth was determined by the increase of optical density at 600 nm using a microplate reader (Tecan SpectraFluor Plus).

[2] = tested on: Staphylococcus aureus; test: as above; format: cell-based
Protocol: as §1

[3] = tested on: E. coli N; test: Inhibition of bacterial growth (IC50, OD600); format: cell-based; details: Cell N
Protocol: (§2) Compounds of the invention were tested for their ability to inhibit the growth of β-lactam sensitive and resistant bacteria by contacting samples of such cells with various dilutions of the compositions, incubating the cells at 37° C. in the presence of these compositions and then measuring the number of viable cells present in each sample.
(§3) Two compounds of the invention were tested, Compound (9) and Compound (1l). Incubation of bacterial cells was performed for two time periods, 10 hours and 20 hours. Four E. coli strains were used for the test. These strains were all derived from the strain NovaBlue (NovaGen Inc., Madison, Wis.). E. coli N is a normal, β-lactam sensitive strain. E coli R(Tem1) is a β-lactam resistant strain with a β-lactamase gene on a plasmid. E. coli C(Tem4O-15) is a β-lactam resistant strain with a β-lactam inhibitor resistant β-lactamase gene, and E. coli C(Tem3 1-27) is β-lactam resistant strain with an alternative β-lactam inhibitor resistant β-lactamase gene.
(§4) The various E. coli strains were each treated with dilutions of the compounds of the invention. […] The number of viable cells at each time point was determined by measuring the OD600 of each cell sample.
(§5) After measuring the number of viable cells present, the IC50 for each sample was determined. […] In addition, both compounds were effective at inhibiting the growth of both antibiotic sensitive and resistant bacterial cells.

[4] = tested on: E coli R(Tem1); test: Inhibition of bacterial growth (IC50, OD600); format: cell-based; details: for IC50 ratio N/R: N versus R (Tem1); for IC50: Cell R (Tem1)
Protocol: as §2, §3, §4, §5

[5] = tested on: E. coli C(Tem4O-15); test: Inhibition of bacterial growth (IC50, OD600); format: cell-based; details: for IC50: Cell C (Tem40-15)
Protocol: as §2, §3, §4, §5

[6] = tested on: E. coli C(Tem3 1-27); test: Inhibition of bacterial growth (IC50, OD600); format: cell-based; details: for IC50: Cell C (Tem31-27)
Protocol: as §2, §3, §4, §5

[7] = tested on: P. aeruginosa; test: Susceptibility testing (MIC, modified NCCLS method); format: cell-based, Pseudomonas aeruginosa
Protocol: as §1

[8] = tested on: S. aureus clinical isolates; test: MIC by agar dilution, recent clinical isolates (UCSD Medical Center); format: cell-based, Staphylococcus aureus; details: MSSA (14)
Protocol: Growth of all 14 isolates of MSSA was inhibited by Compound (9) at the lowest tested concentration (0.08 μg/ml) (See Table 6, below).

[9] = tested on: S. aureus clinical isolates; test: as above; format: cell-based, Staphylococcus aureus; details: MRSA (17)
[10] = tested on: E. faecalis; test: Susceptibility testing (MIC, modified NCCLS method); format: cell-based, Enterococcus faecalis; details: E. faecalis (7)
Protocol: as §1

[11] = tested on: S. epidermidis; test: as above; format: cell-based, Staphylococcus epidermidis; details: Staphylococcus epidermidis, S. epidermidis (5); read-out: GM* MIC (geometric mean)
Protocol: as §1

[12] = read-out: IC50 20 hours, 20 hours
[13] = read-out: IC50 10 hours, 10 hours

3-(2-(2,4-Dichlorophenoxy)-5-chlorophenoxy)methyl-7-(2-thienylacetamido)-1-oxo-3-cephem-4-carboxylate [Compound 11]
MIC [1]: 4 µg/mL | MIC ([2]; S. aureus ATCC 700260): 0.0078 µg/mL | MIC ([2]; S. aureus ATCC 700699): 1 µg/mL | IC50 ([3]; read-out: IC50 10 hours, 10 hours, 37° C.): 7.48 µM | IC50 [3, 12]: 4.24 µM | IC50 ratio N/R ([4]; 10 hours): N/R = 1388x | IC50 ratio N/R ([4]; 20 hours): N/R = 120x | IC50 [4, 13]: 5.39 nM | IC50 [4, 12]: 35.3 nM | IC50 ratio (C/R or N/C) ([5]; 10 hours, line of C (Tem40-15)): N/C = 20x | IC50 ratio (given C/R or N/R) ([5]; 20 hours, line of C (Tem40-15)): N/R = 6.5x | IC50 [5, 13]: 369 nM | IC50 [5, 12]: 653 nM | IC50 ratio (C/R or N/C) ([6]; 10 hours, line of C (Tem31-27)): N/C = 6.7x | IC50 ratio (given C/R or N/R) ([6]; 20 hours, line of C (Tem31-27)): N/R = 2.9x | IC50 [6, 13]: 1110 nM | IC50 [6, 12]: 1480 nM | MIC ([7]; P. aeruginosa ATCC 21726): >64 µg/mL | MIC ([7]; P. aeruginosa ATCC 29872): >64 µg/mL

Cc1nnc(SCC2=C(C(=O)O)N3C(=O)[C@@H](NC(=O)Cn4cnnn4)[C@H]3SC2)s1 [Cefazolin, reference compound]
MIC range [8]: 0.08 to 0.6 µg/mL | MIC50 ([8]; Staphylococcus aureus): 0.16 µg/mL (≈ 0.352 µM) | MIC90 ([8]; Staphylococcus aureus): 0.3 µg/mL (≈ 0.66 µM) | MIC range [9]: 5 µg/mL (≈ 11 µM) | MIC50 ([9]; Staphylococcus aureus): > 5 µg/mL | MIC90 ([9]; Staphylococcus aureus): > 5 µg/mL

Cc1onc(-c2ccccc2)c1C(=O)N[C@@H]1C(=O)N2[C@@H]1SC(C)(C)[C@@H]2C(=O)O [Oxacillin, reference compound]
MIC ([2]; Staphylococcus aureus, ATCC11632, ATCC 11632, methicillin-sensitive, β-lactamase Neg./Pos., read-out: MIC): 0.25 µg/mL (≈ 0.623 µM) | MIC ([2]; Staphylococcus aureus, ATCC13301, ATCC 13301, methicillin-sensitive, β-lactamase Positive, read-out: MIC): 0.25 µg/mL (≈ 0.623 µM) | MIC ([2]; Staphylococcus aureus, ATCC14154, ATCC 14154, methicillin-sensitive, β-lactamase Positive, read-out: MIC): 0.5 µg/mL (≈ 1.25 µM) | MIC ([2]; Staphylococcus aureus, ATCC33591, ATCC 33591, methicillin-resistant, β-lactamase Positive, read-out: MIC): 8 µg/mL (≈ 19.9 µM) | MIC ([2]; Staphylococcus aureus, ATCC33592, ATCC 33592, methicillin-sensitive, β-lactamase Positive, read-out: MIC): 2 µg/mL (≈ 4.98 µM) | MIC ([2]; Staphylococcus aureus, ATCC33593, ATCC 33593, methicillin-resistant, β-lactamase Positive, read-out: MIC): 8 µg/mL (≈ 19.9 µM) | MIC ([2]; Staphylococcus aureus, ATCC33594, ATCC 33594, methicillin-sensitive, β-lactamase Positive, read-out: MIC): 0.25 µg/mL (≈ 0.623 µM) | MIC ([2]; Staphylococcus aureus, ATCC43300, ATCC 43300, methicillin-sensitive, β-lactamase Neg./Pos., read-out: MIC): 2 µg/mL (≈ 4.98 µM) | MIC ([2]; Staphylococcus aureus, ATCC700260, ATCC 700260, methicillin-sensitive, β-lactamase Positive, read-out: MIC): 0.5 µg/mL (≈ 1.25 µM) | MIC ([2]; Staphylococcus aureus, ATCC700698, ATCC 700698, methicillin-resistant, β-lactamase Negative, read-out: MIC): > 32 µg/mL | MIC ([2]; Staphylococcus aureus, ATCC700699, ATCC 700699, methicillin-resistant, β-lactamase Negative, read-out: MIC): > 32 µg/mL | MIC ([2]; Staphylococcus aureus, ATCC700787, ATCC 700787, methicillin-resistant, β-lactamase Positive, read-out: MIC): > 32 µg/mL | MIC ([2]; Staphylococcus aureus, ATCC700788, ATCC 700788, methicillin-resistant, β-lactamase Positive, read-out: MIC): > 32 µg/mL | MIC ([2]; Staphylococcus aureus, ATCC700789, ATCC 700789, methicillin-resistant, β-lactamase Positive, read-out: MIC): 32 µg/mL (≈ 79.7 µM) | MIC ([2]; Staphylococcus aureus, MRSA, MRSA tested (7), read-out: Geometric mean of MIC): > 21.5 µg/mL | MIC ([2]; Staphylococcus aureus, MSSA, MSSA tested (7), read-out: Geometric mean of MIC): 0.55 µg/mL (≈ 1.37 µM) | MIC ([2]; Staphylococcus aureus, S. aureus (14), read-out: Geometric mean of MIC): > 3.45 µg/mL | MIC ([2]; Staphylococcus aureus, S. aureus β-lactamase negative (2), read-out: Geometric mean of MIC): > 32 µg/mL | MIC ([2]; Staphylococcus aureus, S. aureus β-lactamase positive (12), read-out: Geometric mean of MIC): 2.34 µg/mL (≈ 5.83 µM) | MIC range [10]: >11 µg/mL | MIC ([10]; Enterococcus faecalis, read-out: GM* MIC (geometric mean)): > 11 µg/mL | MIC [11]: > 7.87 µg/mL
